Measured values as given in US20100311749A1, “4-BENZOYL-1-SUBSTITUTED-PIPERAZIN-2-ONE DERIVATIVES AS P2X7 MODULATORS” (priority 2007, published 2010).
Structures can show the parent of a compound that is named as a salt.

Each compound was assayed against T1, human P2X7 receptor (Homo sapiens, UniProt Q99572) (assay: Ethidium Accumulation Assay). Conditions: HEK293 cells stably expressing human recombinant P2X7 receptors; 1 mM ATP; values given as 'about'; read-out: pIC50 for human P2X7 receptor antagonist activity (blocking ATP responses) in the Ethidium Accumulation Assay (converted).
T1 construct: expressed in transfected cells
T1 sequence (Q99572 1-595): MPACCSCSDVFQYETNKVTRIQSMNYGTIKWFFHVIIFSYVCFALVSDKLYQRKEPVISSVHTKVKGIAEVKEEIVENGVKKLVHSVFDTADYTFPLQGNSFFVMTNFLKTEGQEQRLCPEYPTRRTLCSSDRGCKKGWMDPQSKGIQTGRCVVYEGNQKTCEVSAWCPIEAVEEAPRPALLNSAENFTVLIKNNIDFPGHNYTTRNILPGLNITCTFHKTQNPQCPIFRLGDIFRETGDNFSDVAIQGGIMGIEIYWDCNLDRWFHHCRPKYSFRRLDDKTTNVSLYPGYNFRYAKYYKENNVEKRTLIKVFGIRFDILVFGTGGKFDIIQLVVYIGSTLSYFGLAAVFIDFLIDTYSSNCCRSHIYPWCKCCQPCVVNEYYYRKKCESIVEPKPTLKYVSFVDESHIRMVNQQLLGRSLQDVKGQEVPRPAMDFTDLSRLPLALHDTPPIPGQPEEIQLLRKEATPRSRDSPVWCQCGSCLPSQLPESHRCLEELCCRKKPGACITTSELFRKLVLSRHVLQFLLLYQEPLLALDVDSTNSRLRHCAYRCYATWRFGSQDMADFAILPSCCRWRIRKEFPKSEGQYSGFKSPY
Format: cell-based
Protocol: Studies were performed using NaCl assay buffer of the following composition: 140 mM NaCl, 10 mM HEPES [4-(2-hydroxyethyl)-1-piperazine-1-ethanesulfonic acid], 5 mM N-methyl-D-glucamine, 5.6 mM KCl, 10 mM D-glucose, 0.5 mM CaCl2 (pH 7.4).
Human Embryonic Kidney (HEK) 293 cells, stably expressing human recombinant P2X7 receptors, were grown in poly-D-lysine pre-treated 96 well plates for 18-24 hours. […] The cells were washed twice with 350 μl of the assay buffer, before addition of 50 μl of the assay buffer containing the putative P2X7 receptor antagonist compound. (A small amount of dimethyl sulfoxide, for initially dissolving the compound, is optionally used and present in this 50 μl test compound sample.) The cells were then incubated at room temperature (19-21° C.) for 30 min before addition of ATP and ethidium (100 μM final assay concentration). The ATP concentration was chosen to be close to the EC80 for the receptor type and was 1 mM for studies on the human P2X7 receptor. Incubations were continued for 8 or 16 min and were terminated by addition of 25 μl of 1.3M sucrose containing 4 mM of the P2X7 receptor antagonist Reactive Black 5 (Aldrich). […] Antagonist pIC50 values for blocking ATP responses were determined using iterative curve fitting techniques.

Row | Compound | IC50 [nM]
1 | CCCN1CCN(C(=O)c2cccc(C(F)(F)F)c2Cl)CC1=O [Example 49, 4-{[2-chloro-3-(trifluoromethyl)phenyl]carbonyl}-1-propyl-2-piperazinone] | 2.51 to 100
2 | N#Cc1cc(F)ccc1N1CCN(C(=O)c2cccc(C(F)(F)F)c2Cl)CC1=O [Example 50, 2-(4-{[2-chloro-3-(trifluoromethyl)phenyl]carbonyl}-2-oxo-1-piperazinyl)-5-fluorobenzonitrile] | 2.51 to 100
3 | Cc1ccc(Br)cc1N1CCN(C(=O)c2cccc(C(F)(F)F)c2Cl)CC1=O [Example 53, 1-(5-bromo-2-methylphenyl)-4-{[2-chloro-3-(trifluoromethyl)phenyl]carbonyl}-2-piperazinone] | 2.51 to 100
4 | Cc1ccc(N2CCOCC2)cc1N1CCN(C(=O)c2cccc(Cl)c2Cl)CC1=O [Example 54, 4-[(2,3-dichlorophenyl)carbonyl]-1-[2-methyl-5-(4-morpholinyl)phenyl]-2-piperazinone] | 2.51 to 100
5 | Cc1ccc(N2CCOCC2)cc1N1CCN(C(=O)c2cccc(C(F)(F)F)c2Cl)CC1=O [Example 55, 4-{[2-chloro-3-(trifluoromethyl)phenyl]carbonyl}-1-[2-methyl-5-(4-morpholinyl)phenyl]-2-piperazinone] | 2.51 to 100
6 | O=C(c1cccc(C(F)(F)F)c1F)N1CCN(c2ccc(F)cc2Cl)C(=O)C1 [Example 56, 1-(2-chloro-4-fluorophenyl)-4-{[2-fluoro-3-(trifluoromethyl)phenyl]carbonyl}-2-piperazinone] | 2.51 to 100
7 | CC(C)Oc1cc(F)ccc1N1CCN(C(=O)c2cccc(C(F)(F)F)c2Cl)CC1=O [Example 57, 4-{[2-chloro-3-(trifluoromethyl)phenyl]carbonyl}-1-{4-fluoro-2-[(1-methylethyl)oxy]phenyl}-2-piperazinone] | 2.51 to 100
8 | CC(C)Oc1cc(F)ccc1N1CCN(C(=O)c2cccc(Cl)c2Cl)CC1=O [Example 58, 4-[(2,3-dichlorophenyl)carbonyl]-1-{4-fluoro-2-[(1-methylethyl)oxy]phenyl}-2-piperazinone] | 2.51 to 100
9 | COc1ccc(I)cc1N1CCN(C(=O)c2cccc(C(F)(F)F)c2Cl)CC1=O [Example 64, 4-{[2-chloro-3-(trifluoromethyl)phenyl]carbonyl}-1-[5-iodo-2-(methyloxy)phenyl]-2-piperazinone] | 2.51 to 100
10 | O=C1CN(C(=O)c2cccc(C(F)(F)F)c2Cl)CCN1CC1CCCCC1 [Example 66, 4-{[2-chloro-3-(trifluoromethyl)phenyl]carbonyl}-1-(cyclohexylmethyl)-2-piperazinone] | 2.51 to 100
11 | Cc1ccc(N2CCCC2)cc1N1CCN(C(=O)c2cccc(C(F)(F)F)c2Cl)CC1=O [Example 73, 4-{[2-chloro-3-(trifluoromethyl)phenyl]carbonyl}-1-[2-methyl-5-(1-pyrrolidinyl)phenyl]-2-piperazinone] | 2.51 to 100
12 | Cc1ccc(-c2ccc(C)c(N3CCN(C(=O)c4cccc(C(F)(F)F)c4Cl)CC3=O)c2)cn1 [Example 74, 4-{[2-chloro-3-(trifluoromethyl)phenyl]carbonyl}-1-[2-methyl-5-(6-methyl-3-pyridinyl)phenyl]-2-piperazinone hydrochloride] | 2.51 to 100
13 | Cc1c(N2CCCC2)cccc1N1CCN(C(=O)c2cccc(C(F)(F)F)c2Cl)CC1=O [Example 75, 4-{[2-chloro-3-(trifluoromethyl)phenyl]carbonyl}-1-[2-methyl-3-(1-pyrrolidinyl)phenyl]-2-piperazinone] | 2.51 to 100
14 | O=C(c1cccc(Cl)c1Cl)N1CCN(c2cc(N3CCOCC3)ccc2Cl)C(=O)C1 [Example 76, 1-[2-chloro-5-(4-morpholinyl)phenyl]-4-[(2,3-dichlorophenyl)carbonyl]-2-piperazinone] | 2.51 to 100
15 | O=C(c1c(Cl)cc(Cl)cc1Cl)N1CCN(c2cc(N3CCOCC3)ccc2Cl)C(=O)C1 [Example 77, 1-[2-chloro-5-(4-morpholinyl)phenyl]-4-[(2,4,6-trichlorophenyl)carbonyl]-2-piperazinone] | 2.51 to 100
16 | O=C(c1cccc(C(F)(F)F)c1Cl)N1CCN(c2cc(N3CCOCC3)ccc2Cl)C(=O)C1 [Example 78, 1-[2-chloro-5-(4-morpholinyl)phenyl]-4-{[2-chloro-3-(trifluoromethyl)phenyl]-carbonyl}-2-piperazinone] | 2.51 to 100
17 | O=C(c1cccc(C(F)(F)F)c1Cl)N1CCN(c2cccc(N3CCOCC3)c2Cl)C(=O)C1 [Example 79, 1-[2-chloro-3-(4-morpholinyl)phenyl]-4-{[2-chloro-3-(trifluoromethyl)phenyl]carbonyl}-2-piperazinone] | 2.51 to 100
18 | Cc1c(N2CCOCC2)cccc1N1CCN(C(=O)c2cccc(Cl)c2Cl)CC1=O [Example 80, 4-[(2,3-dichlorophenyl)carbonyl]-1-[2-methyl-3-(4-morpholinyl)phenyl]-2-piperazinone] | 2.51 to 100
19 | Cc1c(N2CCOCC2)cccc1N1CCN(C(=O)c2cccc(C(F)(F)F)c2Cl)CC1=O [Example 81, 4-{[2-chloro-3-(trifluoromethyl)phenyl]carbonyl}-1-[2-methyl-3-(4-morpholinyl)phenyl]-2-piperazinone] | 2.51 to 100
20 | Cc1c(N2CCOCC2)cccc1N1CCN(C(=O)c2c(Cl)cc(Cl)cc2Cl)CC1=O [Example 82, 1-[2-methyl-3-(4-morpholinyl)phenyl]-4-[(2,4,6-trichlorophenyl)carbonyl]-2-piperazinone] | 2.51 to 100
21 | Cc1ccc(N2CCC(O)C2)cc1N1CCN(C(=O)c2cccc(C(F)(F)F)c2Cl)CC1=O (centres unmarked) [Example 83, 4-{[2-chloro-3-(trifluoromethyl)phenyl]carbonyl}-1-[5-(3-hydroxy-1-pyrrolidinyl)-2-methylphenyl]-2-piperazinone] | 2.51 to 100
22 | Cc1ccc(-c2cccc(N3CCN(C(=O)c4cccc(C(F)(F)F)c4Cl)CC3=O)c2C)cn1 [Example 84, 4-{[2-chloro-3-(trifluoromethyl)phenyl]carbonyl}-1-[2-methyl-3-(6-methyl-3-pyridinyl)phenyl]-2-piperazinone] | 2.51 to 100
23 | CC(c1ccccc1)N1CCN(C(=O)c2cccc(C(F)(F)F)c2Cl)CC1=O (centres unmarked) [Example 85, 4-{[2-chloro-3-(trifluoromethyl)phenyl]carbonyl}-1-(1-phenylethyl)-2-piperazinone] | 2.51 to 100
